Measurements reported in ChEMBL document CHEMBL3507680, “University of Dundee, Gates Library screen for HepG2 cell viability”.

Test: Human HepG2 cell viability assay in 384 well format
Format: toxicity, cell-based
Set-up: dose 125 nL, time 70.5 hour; concentration not given beside the values
Conditions: HepG2 cells, read-out: Inhibition

Row | Compound | cytotoxicity at 70.5 h [%]
1 | Cn1cc(CN2CCCn3cnc(COCC4CC4)c3C2)cn1 | -12.6
2 | CCOCCNC(=O)c1ccn(S(=O)(=O)c2ccc(C)cc2)c1 | -2.02
3 | O=S(=O)(NCCc1ccccc1F)N1CCOCC1 | -3.51
4 | CC(=O)N(Cc1ncc(C(C)C)o1)C1CCN(Cc2cc(C)on2)C1 (stereo not drawn) | -6.93
5 | CC(C)OCCCNC(=O)CN(c1ccc(F)c(F)c1)S(C)(=O)=O | -6.87
6 | Cc1nc(NCCSc2cnn[nH]2)c2cccnc2n1 | 5.69
7 | COc1cc(C)nc(N2CCN(C(=O)c3ccc(Cl)o3)CC2)n1 | -7.01
8 | Cc1ccccc1OCC(O)C(=O)N1CCC2(CC1)CN(C)C(=O)O2 (stereo not drawn) | -4.24
9 | Cc1ccc(C)c(Sc2nccn(C)c2=O)c1 | -10.6
10 | Cc1cncc(C(=O)N2CCC3(CC2)NC(=O)CC3c2ccccc2)c1 (stereo not drawn) | 17.7
11 | CC(=O)N1CCc2nc(C3CCN(c4ncccn4)C3)ncc2C1 (stereo not drawn) | -0.395
12 | CC(C)c1cnc(CN(C)C2CCN(CCc3ccccn3)C2)o1 (stereo not drawn) | 13.1
13 | O=C(NCCNS(=O)(=O)c1ccc2c(c1)CCCC2)c1ccoc1 | -8.42
14 | Cc1nc(CN2CCC3(CC2)CC(c2cccnc2)C(=O)N3C)cs1 (stereo not drawn) | -3.5
15 | O=S(=O)(NCCCn1cncn1)c1ccc2c(c1)CCO2 | -5.26
16 | Cc1cccc(N2CCC3(CCCC(=O)N3)CC2)n1 | -0.82
17 | NC(=O)CSCC(=O)NCC1CCCC1 | -10.8
18 | Cc1ncsc1C(=O)N1CCC(c2ncncc2-c2ccnc(N)c2)C1 (stereo not drawn) | -7
19 | CC(C)CN1CCCC2(CCN(C(=O)c3cnccn3)C2)C1 (stereo not drawn) | -14.6
20 | CCNc1cc2c(nn1)CCN(C(=O)C1COc3ccccc3O1)C2 (stereo not drawn) | -12.7
21 | O=C(NCC[S+]([O-])Cc1ccccc1)c1ccc2[nH]c(=O)[nH]c2c1 (stereo not drawn) | -3.54
22 | CC(=O)N(C)CC(=O)NCC1(c2cccc(C)c2)CCCC1 | 1.29
23 | CCc1ncc2c(n1)CN(c1nc(C)ccc1C(=O)O)C2 | -10.8

Row | Compound | cytotoxicity at 70.5 h [%]
24 | COc1cccc(C2CCCN2Cc2nc3c(cnn3C)c(=O)[nH]2)c1 (stereo not drawn) | -1.55
25 | O=C(c1cnc(O)cn1)N1C[C@@H]2CC[C@H](C1)N(Cc1ccccc1)C2 | -0.665
26 | COc1cccc(N2CCN(C(=O)C(O)c3ccccc3Cl)CC2=O)c1 (stereo not drawn) | -4.36
27 | O[C@@H]1C[C@@](CNCc2ccc(Cl)cc2)(COc2cccnc2)C[C@@H]1O | -10.2
28 | COc1cccc(COC(C)C(=O)N(C)Cc2nnc3n2CCC3)c1 (stereo not drawn) | -3.46
29 | CC(C)n1ncc2c1NC(=O)CC21C(=O)Nc2c(Cl)cc(Br)cc21 (stereo not drawn) | -0.17
30 | Cc1cncc(C(=O)N2CCCC(C(=O)CCc3ccccc3)C2)c1 (stereo not drawn) | -5.02
31 | Cc1ccc(N(C)C2CCN(C(=O)c3ccsc3)CC2)nn1 | -13.8
32 | O=S(=O)(Nc1cnn(C2CCOCC2)c1)c1ccc2c(c1)CCO2 | -5.29
33 | Cc1ccc(CNCC2CNc3cc(C)nn3C2)cn1 (stereo not drawn) | 15.9
34 | COc1c(C2CCCN2C(=O)c2cccc(C(N)=O)c2)c(C)nn1C (stereo not drawn) | 18.9
35 | CN(CCc1ccccc1)Cc1cc(C(=O)N2CCN(C)C(=O)C2)no1 | -14.7
36 | N#Cc1cnc(NCc2ccc(C(=O)NC3CC3)cc2)c(Cl)c1 | -4.64
37 | COc1cccc(-c2ncc(CN3CC[C@H]4CC[C@@H](C3)N4)s2)c1 | 9.35
38 | CN(Cc1cccc(OC(F)(F)F)c1)C(=O)c1cnsn1 | -3.78
39 | CC/C=C(/C)C(=O)NS(=O)(=O)c1ccc(C#N)c(C(F)(F)F)c1 | -12.5
40 | O=C(COc1ccccc1C(F)(F)F)NCCNC(=O)c1ccccc1 | 12.9
41 | NC(=O)c1cc2c(nc1CC1CCCCO1)CCC2 (stereo not drawn) | -2.08
42 | O=C(NCCc1cnccn1)c1cccc(S(=O)(=O)NC2CCOC2)c1 (stereo not drawn) | -1.15
43 | CCC(C)N(Cc1ccncc1)C(=O)CCC(=O)OC (stereo not drawn) | 4.04
44 | Cc1ccc(C(=O)N2CCn3cc(CN(C)Cc4ccco4)nc3C2)o1 | 8.16
45 | COc1ccccc1C(O)CNc1c(C#N)c(=O)n(C)c(=O)n1C (stereo not drawn) | -0.895
46 | CCn1cc2c(n1)C(COC)CN(c1ccc(C)nn1)C2 (stereo not drawn) | -7.13

Row | Compound | cytotoxicity at 70.5 h [%]
47 | CC(C)c1nccn1CCCNC(=O)c1ccc(-c2ccncc2)nc1 | 17.9
48 | Cn1cc(CN2CCCN(C(=O)c3sccc3C#N)CC2)cn1 | -2.13
49 | CNC(=O)C(c1cccc(Cl)c1)C(C)C (stereo not drawn) | 17.1
50 | CCc1nc(Cn2nc(C3CCNCC3)n(-c3ccccc3)c2=O)cs1 | -5.68
51 | Cc1ccnc(NC(=O)CCNC(=O)c2ccccc2Cl)c1 | -1.99
52 | COc1ccc(-c2noc(C3=NN(C)C(=O)CC3)n2)cc1OC | -3.46
53 | Cc1cccc(-c2nc(C)nn2CN2CCN(S(C)(=O)=O)CC2)c1 | -3.93
54 | Cc1nn(C)c(C)c1C1CCCN1C(=O)c1cnc2n[nH]c(C)c2c1 (stereo not drawn) | -7.81
55 | CCOC(=O)c1c(NC(=O)CN2CCN(C(C)=O)CC2)sc2c1CCC2 | -0.965
56 | CCS(=O)(=O)c1ncc(CN2CCOCC2)n1CCCc1ccccc1 | 19.9
57 | Cc1cccc(CNCC2COC3(CCCC3)O2)c1C (stereo not drawn) | 3.58
58 | CN1CCCC(CNC(=O)N(C)Cc2ccc(Cl)c(F)c2)C1 (stereo not drawn) | 7.7
59 | CCc1nc(C2CCCN(C(=O)CC3CCOCC3)C2)no1 (stereo not drawn) | -8.83
60 | Cn1nc(C2CNCCO2)cc1CCOc1cccc(C(F)(F)F)c1 (stereo not drawn) | 7.31
61 | COCC1CCN(c2ccnc3ccsc23)C1 (stereo not drawn) | -5.48
62 | COc1nc(C)c(C(=O)N2CCc3[nH]nc(C4CCCC4)c3C2)s1 | -2
63 | CC(NCc1c(C(C)C)nn(C)c1N1CCOCC1)C(=O)N(C)C (stereo not drawn) | 23
64 | Cc1cc(CN(C)C(=O)c2cc(COc3ccccc3)[nH]n2)n[nH]1 | -3.12
65 | CN(C)C(=O)CNC(=O)CCn1ncc2c(Cl)cccc21 | -5.6
66 | N#Cc1ccc(C(=O)NS(=O)(=O)c2ccc(F)c(F)c2)cc1 | 28.9
67 | CNC(=O)Cn1cc(C#N)c(=O)c2cc(Br)ccc21 | -3.12
68 | c1ncn(CC2CCCCN2Cc2noc(C3CC3)n2)n1 (stereo not drawn) | 11.3
69 | COc1ccccc1C1CNC(=O)c2nc(-c3nccn3C)[nH]c2C1 (stereo not drawn) | 5.33

Row | Compound | cytotoxicity at 70.5 h [%]
70 | CC(c1cccc(Cl)c1)N(C)Cc1nc2c(cnn2C)c(=O)[nH]1 (stereo not drawn) | -1.63
71 | Cc1nc(C)c2c(n1)CCN(C(=O)CN(C)C)CC2 | 2.27
72 | CCC(CO)N(Cc1ccccn1)C(=O)c1ncccc1C (stereo not drawn) | 15.2
73 | O=C(O)C1(Cc2ccc(F)cc2)CCCN(Cc2ccncc2)C1 (stereo not drawn) | 4.55
74 | Cc1nc(C)n(CC(C)C(=O)N2CCC(CN3CCOCC3)CC2)n1 (stereo not drawn) | 4.58
75 | O=C(NCc1ccccn1)[C@@H]1COC[C@H]2CN(C3CCC3)C[C@H]21 | -13.4
76 | c1ccc(CN2CCCn3nnc(Cn4cccc4)c3C2)nc1 | -7.02
77 | CNC(=O)[C@H]1C[C@@H]2CN(C(=O)Nc3ccc(F)cc3)C[C@H]1O2 | -0.584
78 | CC(=O)N1CCCN(CC(C)(O)c2cccc(C(F)(F)F)c2)CC1 (stereo not drawn) | -3.98
79 | CCCc1noc(C2CCN(C(=O)CCn3nc(C)cc3C)CC2)n1 | -7
80 | COc1cc(CO)ccc1OCc1nc(C2CC2)no1 | -7.52
81 | O=c1n(Cc2ncccn2)nc(C2CCNCC2)n1-c1ccccc1 | -2.01
82 | CN1CCC2(C=C(C(=O)N3CCCC3)c3ccccc32)CC1 | 1.49
83 | CC(C)(C)NC(=O)N1CCC(Oc2ccc(C(F)(F)F)cn2)CC1 | -6.24
84 | Cc1cnn(CCC(=O)Nc2cccnc2N2CCC(CO)CC2)c1 | -1.8
85 | COc1ccc(F)c(F)c1C(=O)N1C[C@@H](CN(C)CCO)[C@@H](CO)C1 | 17
86 | COCCn1ccnc1C1CCCN(c2ncnc3c(C)csc23)C1 (stereo not drawn) | 23.8
87 | CN1CCC2(CC1)CNC(=O)c1ccccc1O2 | -13.6
88 | O=C(O)CCc1cn(C2CCN(c3ncccc3Cl)CC2)nn1 | 7.14
89 | FC(F)(F)C1CCc2nnc(CNCc3cccs3)n2C1 (stereo not drawn) | 24.7
90 | O=C(NCCCN1CCCCCC1=O)c1n[nH]c(=O)c2ccccc12 | -2.46
91 | CN1CCCC(CNC(=O)N2CCN(Cc3ccon3)CC2)C1 (stereo not drawn) | -0.171
92 | Cc1nc(CN2CCC3(CCN(Cc4cnn(C)c4)C3)C2=O)cs1 (stereo not drawn) | -13.8

Row | Compound | cytotoxicity at 70.5 h [%]
93 | N#Cc1cccc(CN2C[C@@H](F)[C@@H](OCc3nc4ccccc4[nH]3)C2)c1 | -2.32
94 | CCc1nc(C(=O)N(C)CC(=O)N(C)C)nn1-c1ccccc1Cl | 27.7
95 | Cc1ccccc1CC(=O)N(C)C1CCCC1 | -4.43
96 | Cc1ccc(S(=O)(=O)N2CCN(Cc3ccncc3)CC2)c(Cl)c1 | -26.7
97 | CCc1cnccc1C(=O)Nc1ccc(C(N)=O)nc1 | -4.18
98 | CC(C)(CN1CCC2(CCNCC2)CC1)N1CCOCC1 | -3.64
99 | Cc1ccc(N2CCCC(N3CCC(CO)CC3)C2=O)cc1 (stereo not drawn) | 12.9
100 | NC(=O)CN1CCC(NCc2cc(C(F)(F)F)ccc2Cl)CC1 | -4.69
101 | c1cncc(COC2COC3(CCN(c4cnccn4)CC3)C2)c1 (stereo not drawn) | 15.1
102 | CCOc1cc(N2CCN(C(=O)c3ccc(OC)cc3)CC2)nc(C)n1 | 5.38
103 | Cc1ccc(CNC(=O)N2CCN(C(C)c3cccnc3)CC2)cn1 (stereo not drawn) | -3.85
104 | CSCC[C@H](N)c1nnc(SCc2cc(C)ccc2C)o1 | -5.14
105 | COc1ccc(C(C)Nc2ncc(C(N)=O)cc2Cl)cc1F (stereo not drawn) | -10.7
106 | O=C1NCCCCC1Sc1nnc(-c2cccnc2)n1C1CC1 (stereo not drawn) | -5.84
107 | Cc1nnsc1CN1CCCC1c1nc(-c2ccccc2)no1 (stereo not drawn) | -3.77
108 | Cn1cc(Br)c(=O)c(NS(=O)(=O)c2ccccc2F)c1 | -9.33
109 | CC(C)c1ccn(C2(C(=O)O)CCN(c3cc(C(N)=O)ccn3)CC2)n1 | -3.6
110 | c1ccc(-c2nc(CN3CCOC(Cn4cncn4)C3)cs2)cc1 (stereo not drawn) | -3.05
111 | O=C(Cc1ccc2c(c1)OCCO2)NC1CCCC1 | 10.8
112 | NC(=O)CN1CCCC(Cc2ccc(N3CCOCC3)nn2)C1 (stereo not drawn) | -0.993
113 | O=C(CN1CCCCC1)NCc1cccnc1-n1cnc2ccccc21 | -4.51
